Measurements taken from BigSolDB 2.1.

Question: Which results are given for `O=C1NC(=O)c2ccccc21`?
Answer: solubility (mole fraction) (in acetone, 283.15 K): 0.00783; solubility (mole fraction) (in acetone, 285.65 K): 0.00854; solubility (mole fraction) (in acetone, 288.15 K): 0.00935; solubility (mole fraction) (in acetone, 290.65 K): 0.0101; solubility (mole fraction) (in acetone, 293.15 K): 0.011; solubility (mole fraction) (in acetone, 295.65 K): 0.0119; solubility (mole fraction) (in acetone, 298.15 K): 0.0128; solubility (mole fraction) (in acetone, 300.15 K): 0.0137; solubility (mole fraction) (in acetone, 303.15 K): 0.0149; solubility (mole fraction) (in acetone, 305.65 K): 0.0159; solubility (mole fraction) (in acetone, 308.15 K): 0.017; solubility (mole fraction) (in acetone, 310.65 K): 0.0181; solubility (mole fraction) (in acetone, 313.15 K): 0.0194; solubility (mole fraction) (in acetone, 315.65 K): 0.0209; solubility (mole fraction) (in acetone, 318.15 K): 0.0221; solubility (mole fraction) (in acetonitrile, 283.15 K): 0.00145; solubility (mole fraction) (in acetonitrile, 285.65 K): 0.00161; solubility (mole fraction) (in acetonitrile, 288.15 K): 0.0018; solubility (mole fraction) (in acetonitrile, 290.65 K): 0.00209; solubility (mole fraction) (in acetonitrile, 293.15 K): 0.00238; solubility (mole fraction) (in acetonitrile, 295.65 K): 0.00271; solubility (mole fraction) (in acetonitrile, 298.15 K): 0.00305; solubility (mole fraction) (in acetonitrile, 300.15 K): 0.00335; solubility (mole fraction) (in acetonitrile, 303.15 K): 0.00385; solubility (mole fraction) (in acetonitrile, 305.65 K): 0.0043; solubility (mole fraction) (in acetonitrile, 308.15 K): 0.00472; solubility (mole fraction) (in acetonitrile, 310.65 K): 0.00518; solubility (mole fraction) (in acetonitrile, 313.15 K): 0.00577; solubility (mole fraction) (in acetonitrile, 315.65 K): 0.00631; solubility (mole fraction) (in acetonitrile, 318.15 K): 0.00686; solubility (mole fraction) (in ethanol, 283.15 K): 0.00116; solubility (mole fraction) (in ethanol, 285.65 K): 0.00133; solubility (mole fraction) (in ethanol, 288.15 K): 0.00151; solubility (mole fraction) (in ethanol, 290.65 K): 0.0017; solubility (mole fraction) (in ethanol, 293.15 K): 0.00193; solubility (mole fraction) (in ethanol, 295.65 K): 0.00215; solubility (mole fraction) (in ethanol, 298.15 K): 0.0024; solubility (mole fraction) (in ethanol, 300.15 K): 0.0026; solubility (mole fraction) (in ethanol, 303.15 K): 0.00302; solubility (mole fraction) (in ethanol, 305.65 K): 0.00335; solubility (mole fraction) (in ethanol, 308.15 K): 0.00369; solubility (mole fraction) (in ethanol, 310.65 K): 0.00409; solubility (mole fraction) (in ethanol, 313.15 K): 0.00462; solubility (mole fraction) (in ethanol, 315.65 K): 0.00523; solubility (mole fraction) (in ethanol, 318.15 K): 0.00582; solubility (mole fraction) (in ethyl acetate, 283.15 K): 0.00388; solubility (mole fraction) (in ethyl acetate, 285.65 K): 0.00441; solubility (mole fraction) (in ethyl acetate, 288.15 K): 0.00498; solubility (mole fraction) (in ethyl acetate, 290.65 K): 0.00557; solubility (mole fraction) (in ethyl acetate, 293.15 K): 0.00615; solubility (mole fraction) (in ethyl acetate, 295.65 K): 0.00677; solubility (mole fraction) (in ethyl acetate, 298.15 K): 0.00749; solubility (mole fraction) (in ethyl acetate, 300.15 K): 0.00813; solubility (mole fraction) (in ethyl acetate, 303.15 K): 0.00879; solubility (mole fraction) (in ethyl acetate, 305.65 K): 0.0097; solubility (mole fraction) (in ethyl acetate, 308.15 K): 0.0105; solubility (mole fraction) (in ethyl acetate, 310.65 K): 0.0114; solubility (mole fraction) (in ethyl acetate, 313.15 K): 0.0125; solubility (mole fraction) (in ethyl acetate, 315.65 K): 0.0138; solubility (mole fraction) (in ethyl acetate, 318.15 K): 0.0152; solubility (mole fraction) (in isobutanol, 283.15 K): 0.0014; solubility (mole fraction) (in isobutanol, 285.65 K): 0.00155; solubility (mole fraction) (in isobutanol, 288.15 K): 0.00171; solubility (mole fraction) (in isobutanol, 290.65 K): 0.0019; solubility (mole fraction) (in isobutanol, 293.15 K): 0.00206; solubility (mole fraction) (in isobutanol, 295.65 K): 0.00222; solubility (mole fraction) (in isobutanol, 298.15 K): 0.00242; solubility (mole fraction) (in isobutanol, 300.15 K): 0.0026; solubility (mole fraction) (in isobutanol, 303.15 K): 0.00292; solubility (mole fraction) (in isobutanol, 305.65 K): 0.00315; solubility (mole fraction) (in isobutanol, 308.15 K): 0.0034; solubility (mole fraction) (in isobutanol, 310.65 K): 0.00368; solubility (mole fraction) (in isobutanol, 313.15 K): 0.00398; solubility (mole fraction) (in isobutanol, 315.65 K): 0.00428; solubility (mole fraction) (in isobutanol, 318.15 K): 0.00469
